SMILES strings stand for the structures. Where two headings read alike, the source gives them in different places.

Type in all cases: cell-based
One test relates to MM.1S cells. Briefly: Effect of the compound on the proliferation of MM.1S cells (MTS). Particulars: Homo sapiens, MM1.S, 168 h, 7 days, read-out: Cell inhibitory activity (IC50). Summed up: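 In 1640 medium + 10% FBS, 20,000 cells per well were treated with 5-fold compound dilutions at 0.2% DMSO for 7 days at 37° C., 5% CO2. MTS was read after 3–4 h as OD490−OD690, inhibition was calculated against DMSO and blank wells, and IC50 was fitted; three independent experiments were run.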

The subject of the next test is Mino cells. The test is described as follows: Effect of the compound on the proliferation of Mino cells (MTS). The following applies: Homo sapiens, 72 h, 3 days, read-out: Inhibitory activity (IC50). The protocol: Mino cells were cultured with 1640 plus […] and collected. The cell concentration was diluted according to the action time of 3 days, and 90 ul cell suspension was added to each well of the 96-well cell plate to make the cell count to be 8000. 10 ul of DMSO with a final concentration of 0.2% was added to the control cell wells. The compound was diluted 5-fold with the 10 mM stock solution, and 10 ul was also added to the compound cell wells (the final concentration of DMSO was 0.2%). The cells were placed in a 37° C., […] incubator and incubated for 3 days. After preparing the reaction solution according to the MTS kit (Promega, G5430), 20 μL was added to each well, incubated in a 37° C., 5% CO2 incubator for 3-4 h. Read the 490 nm absorbance value with a microtiter plate, and used the 690 nm absorbance value as the background value and OD490-OD690 as the final initial data. The formula for calculating the inhibition rate of the compound was: inhibition rate=(OD DMSO-ODcompound)/(ODDMSO-Oblank)×100%. The compound's proliferation inhibition IC50 was fitted by Graph Pad Prism 5.0. The experiment was repeated three times, and three parallel experiments were used to calculate the average and standard deviation each time.

The subject of the next test is MV-4-11 cells. The test is described as follows: Effect of the compound on proliferation of MV-4-11 cells (MTS). The following applies: Homo sapiens. The protocol: MV-4-11 cells were cultured with IMDM plus 10% fetal bovine serum and collected. The cell concentration was diluted according to the action time of 7 days, and 180 ul of cell suspension was added to each well of a 96-well cell plate to make the cell count to be 2000. 20 ul of DMSO with a final concentration of 0.2% was added to the control cell wells. The compound was diluted 5-fold with the 10 mM stock solution, and 20 ul was also added to the compound cell wells (the final concentration of DMSO was 0.2%). The cells were placed in a 37° C., 5% CO2 incubator and incubated for 7 days. After preparing the reaction solution according to the MTS kit (Promega, G5430), 20 μL was added to each well, incubated in a 37° C., 5% CO2 incubator for 3-4 h. Read the 490 nm absorbance value with a microtiter plate, and used the 690 nm absorbance value as the background value and OD490-OD690 as the final initial data. The formula for calculating the inhibition rate of the compound was: inhibition rate=(OD DMSO-ODcompound)/(ODDMSO-Oblank)×100%. The compound's proliferation inhibition IC50 was fitted by Graph Pad Prism 5.0. The experiment was repeated three times, and three parallel experiments were used to calculate the average and standard deviation each time. The cell viability test results were shown in Table 3: A means cell viability IC50<1 μM, B means cell viability 1 μM≤IC50≤20 μM, C means cell viability IC50>20 μM.

Test [1] relates to Colorectal cancer cells HCT-116. Briefly: Proliferation of other tumor cells, HCT-116 (WST-8). The following applies: Homo sapiens, 96 h, HCT-116 cells, 4 days, read-out: Inhibitory activity on proliferation, HCT-116 (IC50). The protocol: (§1) The human triple negative breast cancer cells MDA-MB-468 and MDA-MB-231 used in this experiment were purchased from the Shanghai Cell Bank, in which L-15 medium added with 10% fetal bovine serum (FBS) and 1% double antibody was used. At 37° C., MDA-MB-468 and MDA-MB-231 cells were cultured in an incubator without CO2. Colorectal cancer cells HCT-116 were cultured in McCOY's 5A medium with 1% double antibody and 10% fetal bovine serum (FBS); prostate cancer cells DU145 were cultured in MEM medium with 1% double antibody and 10% fetal bovine serum (FBS); prostate cancer cells PC-3 were cultured in F-12 K medium with 1% double antibody and 10% fetal bovine serum (FBS); grew at 37° C., 5% CO2.
(§2) In the cell activity test experiment, 90 μL cell suspension with appropriate concentration was added to a 96-well cell culture plate according to the cell growth, each compound to be tested was gradient diluted with the corresponding medium, 10 μL diluted compound was added to 90 μL cells, and then incubated at 37° C. for 4 days. Cell proliferation was analyzed by WST-8, which could be reduced by lactate dehydrogenase in the cells to a yellow formazan. 10 μL of WST-8 reagent (DOJINDO) was added to the cells and reacted for more than 1 hour at 37° C., DMSO-treated cells were used as […]. The absorption value of 490 nm was read by enzyme-labeled plate, and the absorption value of 690 nm was taken as the background value, and OD490-OD690 was taken as the final original data, and the data was processed by GraphPad Prism6 software. The formula for calculating the inhibition rate of the compound was: inhibition rate=(ODDMSO−ODcompound)/(ODDMSO−Oblank)×100%. The compound's proliferation inhibition IC50 was fitted by Graph Pad Prism 5.0. The experiment was repeated three times, and three parallel experiments were used to calculate the average and standard deviation each time. The cell viability test results were shown in Table 4: A means cell viability IC50<1 μM, B means cell viability 1 μM≤IC50≤20 μM, C means cell viability IC50>20 μM, NT means not tested.

Test [2] concerns prostate cancer cells PC-3. Briefly: Proliferation of other tumor cells, PC-3 (WST-8). Particulars: Homo sapiens, 96 h, PC-3 cells, 4 days, read-out: Inhibitory activity on proliferation, PC-3 (IC50). The protocol: as §1, §2
Test [3] has as its system prostate cancer cells DU145. Briefly: Proliferation of other tumor cells, DU145 (WST-8). The following applies: Homo sapiens, DU-145, 96 h, 4 days, read-out: Inhibitory activity on proliferation, DU145 (IC50). The protocol:
as §1, §2

Test [4] deals with triple negative breast cancer cells MDA-MB-231. The test is described as follows: Proliferation of other tumor cells, MDA-MB-231 (WST-8). Particulars: Homo sapiens, 96 h, MDA-MB-231 cells, 4 days, read-out: Inhibitory activity on proliferation, MDA-MB-231 (IC50). The protocol:
as §1, §2

The mark [5] stands for this setting: MV4-11, 168 h, 7 days, MTS, read-out: Inhibitory activity (IC50).

For the compound `O=C1CCC(N2Cc3c(OCc4cn(-c5cccc(OC(F)(F)F)c5)nn4)cccc3C2=O)C(=O)N1` (stereo not shown) [Compound 20, 3-(1-oxo-4-((1-(3-(trifluoromethoxy)phenyl)-1H-1,2,3-triazol-4-)methoxy)isoindolin-2-) piperidine-2,6-dione], the IC50 with MM.1S cells was less than 150 nM; in the test on Mino cells, less than 150 nM; with MV-4-11 cells (setting [5]), 1000 to 20000 nM.

With `O=C1CCC(N2Cc3c(OCc4cn(-c5ccc6[nH]ccc6c5)nn4)cccc3C2=O)C(=O)N1` (stereo not shown) [Compound 26, 3-(4-((1-(1H-indol-5-)-1H-1,2,3-triazol-4-)methoxy)-1-oxoisoindolin-2-) piperidine-2,6-dione], the IC50 in the test with MM.1S cells is less than 150 nM; with Mino cells it was less than 150 nM; with MV-4-11 cells (setting [5]), less than 1000 nM.

For `COCCn1ccc2cc(-n3cc(COc4cccc5c4CN(C4CCC(=O)NC4=O)C5=O)nn3)ccc21` (stereo not shown) [Compound 28], the IC50 with MM.1S cells was less than 150 nM; in the test with Mino cells it was less than 150 nM; in the test with MV-4-11 cells (setting [5]) it was less than 1000 nM.

As for `O=C1CCC(N2Cc3c(OCc4cn(-c5ccc(OC6CCOCC6)cc5)nn4)cccc3C2=O)C(=O)N1` (stereo not shown) [Compound 30, 3-(1-oxo-4-((1-(4-((2H-tetrahydropyran-4-)oxy)phenyl)-1H-1,2,3-triazol-4-)methoxy)isoindolin-2-)piperidine-2,6-dione], the IC50 in the test on MM.1S cells was less than 150 nM; in the test with Mino cells, less than 150 nM; in test [1], 1000 to 20000 nM; in test [2] it was 1000 to 20000 nM; in test [3] it was 1000 to 20000 nM; in test [4] it was 1000 to 20000 nM.

In the case of `O=C1CCC(N2Cc3c(OCc4cnc(-c5ccc(OC(F)(F)F)cc5)o4)cccc3C2=O)C(=O)N1` (stereo not shown) [Compound 45, 3-(1-oxo-4-((2-(4-trifluoromethoxyphenyl)oxazol-5-)methoxy)isoindolin-2-) piperidine-2,6-dione], the IC50 in the test on MM.1S cells was less than 150 nM; with Mino cells it was less than 150 nM; in test [1] it was 1000 to 20000 nM; in test [2] it was 1000 to 20000 nM; in test [3], 1000 to 20000 nM; in test [4] it was more than 20000 nM.

For the compound `O=C1CCC(N2Cc3c(OC[C@@H]4CCN(c5ccc(OC(F)(F)F)cc5)C4)cccc3C2=O)C(=O)N1` (stereo partly drawn) [Compound 70, 3-(1-oxo-4-(((R)-1-(4-(trifluoromethoxy)phenyl)pyrrolin-3-)methoxy)isoindolin-2-) piperidine-2,6-dione], the IC50 is less than 150 nM in the test on MM.1S cells, 150 to 20000 nM in the test on Mino cells and 1000 to 20000 nM in the test with MV-4-11 cells (setting [5]).

As for `O=C1CCC(N2Cc3c(OC[C@H]4CCN(c5ccc(OC(F)(F)F)cc5)C4)cccc3C2=O)C(=O)N1` (stereo partly drawn) [Compound 71, 3-(1-oxo-4-(((S)-1-(4-(trifluoromethoxy)phenyl)pyrrolin-3-)methoxy)isoindolin-2-) piperidine-2,6-dione], the IC50 in the test on MM.1S cells was in the range of 150 to 20000 nM; with Mino cells it was 150 to 20000 nM; with MV-4-11 cells (setting [5]), 1000 to 20000 nM.

On to `Nc1cccc2c1C(=O)N(C1CCC(=O)NC1=O)C2=O` (stereo not shown) [Pomalidomide, pomalidomide, reference compound], for which the IC50 in the test on MM.1S cells was less than 150 nM; with Mino cells, 150 to 20000 nM; in the test with MV-4-11 cells (setting [5]), more than 20000 nM; with MV-4-11 cells (MV4-11, read-out: cytostatic activity (IC50) on MV-4-11 cells) it was more than 20000 nM.

The values above are taken from patent US20220041578A1, “ISOINDOLINE COMPOUND, AND PREPARATION METHOD, PHARMACEUTICAL COMPOSITION, AND APPLICATION OF ISOINDOLINE COMPOUND” (Shanghai Institute of Meteria Medica, Chinese Academy of …, priority 2018, published 2022).
